Measured values taken from patent US8367873B2, “Phenyl-substituted bicyclooctane-1,3-dione derivatives” (Bayer Cropscience AG, priority 2008, dated 2013).

Columns and labels:
Type in all cases: in vivo
Alopecurus myosuroides [1] = experiment: Herbicidal pre-emergence action; settings: pre-emergence method, 80 g/ha, greenhouse, visual assessment vs untreated controls
Method in brief: (§1)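 Visual percent damage score (100% = dead plants, 0% = as untreated control) taken three weeks after pre-emergence treatment. Compounds were wettable powders sprayed onto covering soil over seeds in sandy loam, 600 l/ha water with 0.2% wetting agent, several application amounts; pots kept in greenhouse.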

Echinocloa crus-galli [2] = experiment: Herbicidal pre-emergence action; settings: pre-emergence method, 80 g/ha, greenhouse, visual assessment vs untreated controls
Method in brief: as §1

Lolium multiflorum [3] = experiment: Herbicidal pre-emergence action; settings: pre-emergence method, 80 g/ha, greenhouse, visual assessment vs untreated controls
Method in brief: as §1

Setaria viridis [4] = experiment: Herbicidal pre-emergence action; settings: pre-emergence method, 80 g/ha, greenhouse, visual assessment vs untreated controls
Method in brief: as §1

Alopecurus myosuroides [5] = experiment: Herbicidal post-emergence action; settings: post-emergence method, 80 g/ha
Method in brief: (§2)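 Greenhouse-grown weeds were treated post-emergence at the one-leaf stage, two to three weeks after sowing in sandy loam. Compounds formulated as WP were sprayed at various rates in 600 l/ha water with 0.2% wetting agent. Damage was scored visually after about three weeks versus untreated controls (0% = like control, 100% = dead).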

Echinocloa crus-galli [6] = experiment: Herbicidal post-emergence action; settings: post-emergence method, 80 g/ha
Method in brief: as §2

Lolium multiflorum [7] = experiment: Herbicidal post-emergence action; settings: post-emergence method, 80 g/ha
Method in brief: as §2

Setaria viridis [8] = experiment: Herbicidal post-emergence action; settings: post-emergence method, 80 g/ha
Method in brief: as §2

[9] = tested on: monocotylidonous and dicotylidonous weed and crop plants; experiment: Herbicidal pre-emergence action (other test plants); settings: pre-emergence method, 80 g/ha, greenhouse, visual assessment vs untreated controls
Method in brief: as §1

[10] = tested on: monocotylidonous and dicotylidonous weed and crop plants; experiment: Herbicidal post-emergence action (other test plants); settings: post-emergence method, 80 g/ha
Method in brief: as §2

Structure (SMILES)	herbicidal effect ALOMY (Alopecurus myosuroides [1])	herbicidal effect ECHCG (Echinocloa crus-galli [2])	herbicidal effect LOLMU (Lolium multiflorum [3])	herbicidal effect SETVI (Setaria viridis [4])	herbicidal effect against ALOMY (Alopecurus myosuroides) (Alopecurus myosuroides [5])	herbicidal effect against ECHCG (Echinochloa crus-galli) (Echinocloa crus-galli [6])	herbicidal effect against LOLMU (Lolium multiflorum) (Lolium multiflorum [7])	herbicidal effect against SETVI (Setaria viridis) (Setaria viridis [8])	herbicidal effect AVEFA [9]	herbicidal effect against AVEFA (Avena fatua) [10]
Cc1cc(C)c(C2=C(OC(=O)C(C)(C)CCl)C3CC4(COC(C)(C)O4)CC3C2=O)c(C)c1 (mixture of isomers) [I-b-51]	80%	30%	70%	0%	90%	100%	60%	40%	30%	0%
Cc1cc(C)c(C2=C(OC(=O)C(C)C)C3CC4(CC3C2=O)OCCO4)c(C)c1 (stereo not drawn) [I-b-39]	60%	10%	80%	0%	60%	100%	100%	90%	50%	20%
CCc1cc(C)cc(CC)c1C1=C(OC(=O)C(C)(C)CCl)C2CC3(CC2C1=O)OCCCO3 (stereo not drawn) [I-b-25]	90%	100%	100%	60%	100%	100%	100%	100%	70%	100%
CCOC(=O)OC1=C(c2c(CC)cc(C)cc2CC)C(=O)C2CC3(CC12)OCC(OC)CO3 (stereo not drawn) [I-c-25]	100%	100%	100%	80%	100%	100%	100%	100%	90%	100%
CCOC(=O)OC1=C(c2c(CC)cc(C)cc2CC)C(=O)[C@@H]2CC3(C[C@H]12)OCC=CCO3 (relative stereo) [I-c-11]	90%	100%	90%	90%	80%	100%	90%	90%	70%	80%
Cc1cc(C)c(C2=C(O)[C@H]3CC4(C[C@H]3C2=O)OCC(C)CO4)c(C)c1 (relative stereo) [I-a-38]	100%	40%	100%	90%	100%	80%	100%	90%	40%	90%
COc1cc(C)cc(C)c1C1=C(O)C2CC3(CC2C1=O)OCCO3 (stereo not drawn) [I-a-48]	80%	40%	80%	70%	80%	100%	100%	100%	60%	90%
C=C1CC2C(=O)C(c3c(C)cc(C)cc3C)=C(OC(=O)C(C)(C)C)C2C1 (stereo not drawn) [I-b-37]	90%	70%	70%	70%	0%	90%	70%	90%	40%	0%
COc1cc(C)cc(C)c1C1=C(OC(=O)C(C)C)C2CC3(CC2C1=O)OCCCO3 (stereo not drawn) [I-b-64]	60%	0%	100%	90%	100%	100%	100%	100%	50%	100%
CCc1cc(C)cc(CC)c1C1=C(O)[C@H]2CC3(C[C@H]2C1=O)OC(C)(C)C(C)(C)O3 (relative stereo) [I-a-19]	90%	0%	100%	20%	80%	90%	100%	50%	20%	0%
CCc1cc(C)cc(C)c1C1=C(OC(=O)OC(C)C)C2CC3(COC(C)(C)O3)CC2C1=O (mixture of isomers) [I-c-78]	100%	100%	100%	80%	100%	90%	100%	80%	90%	0%
Cc1cc(C)c(C2=C(O)C3CC4(CC3C2=O)OCCCCO4)c(C)c1 (stereo not drawn) [I-a-40]	50%	80%	100%	50%	80%	90%	90%	80%	40%	60%
CCc1cc(C)cc(C)c1C1=C(OC(=O)C(C)C)C2CC3(CC2C1=O)OCC=CCO3 (stereo not drawn) [I-b-76]	100%	100%	100%	70%	90%	100%	100%	100%	60%	90%
CCOC(=O)OC1=C(c2c(C)cc(C)cc2C)C(=O)C2CC3(CC12)OCC=CCO3 (racemic) [I-c-51]	100%	30%	90%	90%	100%	100%	100%	100%	60%	40%
CCOC(=O)OC1=C(c2c(CC)cc(C)cc2CC)C(=O)C2CC3(CC12)OCC(C)O3 (mixture of isomers) [I-c-8]	60%	60%	100%	50%	90%	100%	100%	90%	40%	60%
COc1cc(C)cc(C)c1C1=C(O)C2CC3(CC2C1=O)OCC=CCO3 (stereo not drawn) [I-a-49]	100%	100%	100%	90%	100%	100%	100%	100%	90%	100%
C=C1CC2C(=O)C(c3c(C)cc(C)cc3CC)=C(OC(=O)C(C)C)C2C1 (stereo not drawn) [I-b-72]	80%	100%	100%	100%	0%	100%	0%	90%	60%	0%
CCc1cc(C)cc(CC)c1C1=C([O-])C2CC3(CC2C1=O)OCC(OC)CO3.[Na+] (stereo not drawn) [I-f-13]	100%	100%	100%	90%	100%	100%	100%	100%	0%	100%
